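Following 48 hours of exposure in 96-well plates, responses at five concentrations were used to interpolate endpoints linearly. GI50 marks 50% less growth.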 Activity calls are given as the source filed them. Cut-off read from the data, not from the text of the source: active = GI50 up to about 1.1 µM and inactive = higher.
Legend:
Assay in all cases: growth of human tumour cells (NCI), 48 h
SK-OV-3 = tested on: SK-OV-3
ACHN = tested on: ACHN
HT-29 = tested on: HT-29
EKVX = tested on: EKVX
K562 = tested on: K562
NCI-H226 = tested on: NCI-H226
MDA-N = tested on: MDA-N
MCF7 = tested on: MCF7
COLO 205 = tested on: COLO 205
SK-MEL-28 = tested on: SK-MEL-28
UO-31 = tested on: UO-31
NCI-H460 = tested on: NCI-H460
UACC-257 = tested on: UACC-257
MDA-MB-231 = tested on: MDA-MB-231
SK-MEL-2 = tested on: SK-MEL-2
786-0 = tested on: 786-0
LOX IMVI = tested on: LOX IMVI
TK-10 = tested on: TK-10
NCI-H522 = tested on: NCI-H522

Compound	GI50 (SK-OV-3)	GI50 (ACHN)	GI50 (HT-29)	GI50 (EKVX)	GI50 (K562)	GI50 (NCI-H226)	GI50 (MDA-N)	GI50 (MCF7)	GI50 (COLO 205)	GI50 (SK-MEL-28)	GI50 (UO-31)	GI50 (NCI-H460)	GI50 (UACC-257)	GI50 (MDA-MB-231)	GI50 (SK-MEL-2)	GI50 (786-0)	GI50 (LOX IMVI)	GI50 (TK-10)	GI50 (NCI-H522)
C#CCOC(=O)C(=[N+]=[N-])C(=O)CC(C)C	> 10 µM (inactive)	> 10 µM (inactive)	> 10 µM (inactive)	> 10 µM (inactive)	> 10 µM (inactive)	> 10 µM (inactive)	> 10 µM (inactive)	> 10 µM (inactive)	> 10 µM (inactive)	> 10 µM (inactive)	> 10 µM (inactive)	> 10 µM (inactive)	> 10 µM (inactive)	> 10 µM (inactive)	> 10 µM (inactive)	> 10 µM (inactive)	> 10 µM (inactive)	> 10 µM (inactive)	
CC(=O)OC1COC(n2c(N)c(C#N)c(C)c(C#N)c2=S)C(OC(C)=O)C1OC(C)=O (configuration not stated)	> 100 µM (inactive)	59.6 µM (inactive)	> 100 µM (inactive)		58.9 µM (inactive)	> 100 µM (inactive)	> 100 µM (inactive)	88.1 µM (inactive)		> 100 µM (inactive)	> 100 µM (inactive)	> 100 µM (inactive)	> 100 µM (inactive)	> 100 µM (inactive)		> 100 µM (inactive)	> 100 µM (inactive)	> 100 µM (inactive)	> 100 µM (inactive)
O=c1cc(-c2ccccc2)[nH]c2cccc(S)c12	0.119 µM (active)	0.804 µM (active)	0.202 µM (active)	> 100 µM (inactive)	0.0588 µM (active)	0.406 µM (active)	0.0246 µM (active)	0.465 µM (active)	0.249 µM (active)	0.564 µM (active)		0.301 µM (active)	0.0762 µM (active)	0.455 µM (active)		0.301 µM (active)			0.0782 µM (active)
Cc1ccc2c(=O)c(C(=O)Nn3c(C)csc3=S)c[nH]c2n1		> 100 µM (inactive)	> 100 µM (inactive)	> 100 µM (inactive)	> 100 µM (inactive)	83 µM (inactive)	> 100 µM (inactive)	> 100 µM (inactive)	> 100 µM (inactive)	> 100 µM (inactive)	> 100 µM (inactive)	> 100 µM (inactive)	> 100 µM (inactive)	> 100 µM (inactive)	> 100 µM (inactive)	> 100 µM (inactive)	> 100 µM (inactive)	> 100 µM (inactive)	> 100 µM (inactive)
Clc1ccc(C2=CCN3CC=C(c4ccc(Cl)cc4)C23)cc1		13.7 µM (inactive)	5.21 µM (inactive)	15.3 µM (inactive)	3.17 µM (inactive)	24 µM (inactive)	10.8 µM (inactive)	13.9 µM (inactive)	2.7 µM (inactive)	13.9 µM (inactive)	6.81 µM (inactive)	9.98 µM (inactive)	11.8 µM (inactive)	12.4 µM (inactive)	15.5 µM (inactive)	11.6 µM (inactive)	8.34 µM (inactive)	14 µM (inactive)	10.2 µM (inactive)
COC(=O)[C@@]1(Cc2ccc(OC(C)=O)cc2)Cc2cc3ccccc3n2N1	> 100 µM (inactive)	58.1 µM (inactive)	36 µM (inactive)	23.8 µM (inactive)		63.4 µM (inactive)	26.5 µM (inactive)	29.9 µM (inactive)	31.2 µM (inactive)	54.6 µM (inactive)	50.7 µM (inactive)		17.3 µM (inactive)	29.2 µM (inactive)	18.2 µM (inactive)	33.7 µM (inactive)	38.6 µM (inactive)	33.7 µM (inactive)	24 µM (inactive)
CC1(C)OC[C@@H](O)[C@H](Br)CO1	> 100 µM (inactive)	> 100 µM (inactive)	> 100 µM (inactive)	> 100 µM (inactive)	79.8 µM (inactive)	> 100 µM (inactive)	> 100 µM (inactive)	> 100 µM (inactive)	> 100 µM (inactive)	> 100 µM (inactive)	> 100 µM (inactive)	> 100 µM (inactive)	> 100 µM (inactive)	> 100 µM (inactive)	> 100 µM (inactive)	> 100 µM (inactive)	> 100 µM (inactive)	> 100 µM (inactive)	
CCCC(=O)Oc1ccc2c(C)cc(=O)oc2c1OC(=O)CCC	> 100 µM (inactive)	49.5 µM (inactive)	35.5 µM (inactive)	70.5 µM (inactive)	60 µM (inactive)	34.8 µM (inactive)	> 100 µM (inactive)	55.5 µM (inactive)	86.1 µM (inactive)	54.2 µM (inactive)	60.1 µM (inactive)		36.1 µM (inactive)	42.6 µM (inactive)	> 100 µM (inactive)	73.3 µM (inactive)	40.8 µM (inactive)	50.4 µM (inactive)	

— ChEMBL document CHEMBL1201862, “PubChem BioAssay data set” (2004)
